Data taken from US20050214376A1, “Hydrogel-containing medical articles and methods of using and making the same” (priority 2003, published 2005).

Assays:
human skin [1] = conditions: 107 subjects
Excerpt: Subjects fulfilled specific inclusion criteria including not being pregnant or breastfeeding, being over 18 years old, having healthy skin, and not having used any dermatological or cosmetic preparation on the test area within 5 days before the beginning of the study.
Briefly, the tested hydrogels were applied under occlusion on the outer aspect of the upper arm for a defined time. The applications were repeated 9 times over a period of 3 consecutive weeks, a duration necessary for the possible induction of an immune response. The irritancy potential was evaluated and compared to the irritancy potential of the standard, SLS. After a two-week rest period with no treatment, the tested hydrogels were applied under occlusion to the induction site and to a virgin site on the volar side of the underarm for a defined period of time to trigger a possible immune response.
The final pH of the hydrogels was adjusted to about 5.5.
Possible skin reactions to the products were scored according to the scale reproduced in Table 5 above.
In summary, the test product is considered to have a low sensitization potential if none of the subjects reported a grade 2 or higher dermal response on days 38 to 40 and no more than two subjects reported a grade 1 dermal response on days 38 to 40. A moderate sensitization potential is assigned if a maximum of 2 subjects reported a grade 2 or higher dermal response on days 38 to 40 and a maximum of 4 subjects reported a grade 1 response on days 38 to 40. A high sensitization potential is assigned if 3 or more subjects reported a grade 2 or higher dermal response on days 38 to 40 and 5 or more subjects reported a grade 1 response on days 38 to 40.
The cumulative irritancy score represents the sum of the irritancy scores assigned on days 3, 5, 8, 10, 12, 15, 17, 19, and 22. […] An irritancy score was assigned to each induction and virgin site on days 36, 38, 39 and 40, and their respective scores were added up separately to produce the cumulative irritancy score presented in the fourth column of Table 10. The fifth and sixth columns indicate the number of subjects that experienced a grade 2 or greater response on each of days 38, 39 and 40, and the number of subjects that experienced a grade 1 response on each of days 38, 39, and 40.

human skin [2] = conditions: both, in vivo
[3] = Uptake rates of active agents into hydrogel samples; type: physicochemical; conditions: for time to reach the same concentration in the hydrogel as the uptake solution: 1 mm hydrogel samples, methylene blue 1 ppm, p-nitrophenol 0.4 wt. %
Experimental: Uptake solutions of methylene blue (1 ppm) and p-nitrophenol (0.4 wt. %) were prepared. […] The hydrogels were then carefully blotted of excess solution and were each transferred into a second beaker containing 30 ml of a 10 mM phosphate buffer solution with a pH of 6 to equilibrate.
The hydrogels were continuously agitated to ensure that the equilibrium state was reached. The uptake of p-nitrophenol and methylene blue was assumed to correspond to the amount that was released into the washing buffer solution. […] Methylene blue was similarly measured at 655 nm and the calibration curve was in the range of 0.0025 ppm to 3 ppm.

Compound | Cumulative Irritancy Score (human skin [1]; 22-day induction phase) | Number of reacting subjects (human skin [1]; 22-day induction phase) | Type of Reactivity (human skin [1]; 22-day induction phase) | subjects with slight glazed appearance and/or marked glazing (human skin [1]; induction phase) | C: Glazing with peeling & cracking, number of subjects (human skin [2]) | D: Glazing with fissures, number of subjects (human skin [2]) | E: Film of dried serious exudate covering all or part of the patch site, number of subjects (human skin [2]) | F: Small petechial erosions and/or scabs, number of subjects (human skin [2]) | Maximum single score (human skin [2]) | Maximum sum (human skin [2]) | Minimum single score (human skin [2]) | Minimum sum (human skin [2]) | N (reacting subjects) (human skin [2]) | Slight itch, number of subjects (human skin [2]) | Sum of scores for dermal reactions (human skin [2]) | time to reach the same concentration in the hydrogel as the uptake solution [3] | concentration in hydrogel relative to the initial uptake solution ([3]; within an hour) [times]
CCCCCCCCCCCCOS(=O)(=O)[O-].[Na+] [Positive Control, sodium lauryl sulphate] | 21 | 11 | Minimal erythema | 20 | 0 | 0 | 0 | 0 | 1 | 3 | 0 | 0 | 19 | 0 | 23.00 | – | –
CN(C)c1ccc2nc3ccc(=[N+](C)C)cc-3sc2c1 [methylene blue] | – | – | – | – | – | – | – | – | – | – | – | – | – | – | – | less than 1.50 minutes | 6
O=[N+]([O-])c1ccc(O)cc1 [p-nitrophenol] | – | – | – | – | – | – | – | – | – | – | – | – | – | – | – | about 15 minutes | –
